Patent publication US6375461B1 (Ultradent Products, Inc., priority 2000, dated 2002)
Like-named read-outs stand apart in the source and are kept apart here.

Tests used:
[1] = mixed with ferric salts; cited from earlier work
[2] = tested on: heart rate and blood pressure; conditions: in vivo
[3] = cited from earlier work
[4] = tested on: heart rate and blood pressure; experiment: Systemic effects (heart rate, blood pressure) of retraction cords packed into the gingival sulcus; conditions: retraction cords packed into a person's gingival sulcus
gingival tissue = experiment: Local effect on gingival tissue when used in gingival retraction cords; type: in vivo, patient
[5] = Reaction with iron-based astringents (ferric salts), formation of colored reaction products; type: physicochemical; conditions: mixed with astringent salts

SMILES	colored reaction products with ferric salts (known) [1]	systemic effects: heart rate and blood pressure [2]	volume of water in which 1 gram is dissolvable [3] [mL]	systemic effects: heart rate and blood pressure [4]	stiffening and retraction of gingival tissue (gingival tissue; gingival tissue)	vasoconstricting effect (gingival tissue; used in gingival retraction cords)	colored reaction products with astringent salts including ferric salts [5]
CNC[C@H](O)c1ccc(O)c(O)c1 [epinephrine]	immediately form purple-colored reaction products	increase a patient's heart rate and blood pressure	–	–	–	–	–
CNC(C)CC1CCCCC1 (stereo not drawn) [Propylhexedrine, N,α-dimethylcyclohexaneethylamine]	–	–	500	does not produce the systemic adrenal effects	localized stiffening and retraction of gingival tissue	localized vasoconstricting effect	without forming colored reaction products
